Measured values taken from ChEMBL document CHEMBL5291721, “A preclinical secondary pharmacology resource illuminates target-adverse drug reaction associations of marketed drugs” (Nat Commun, 2023).
Where a SMILES comes first, the peptide text is derived from it. [ ]: non-standard residue; d: D form. pGlu = O=C1CC[C@@H](C(=O)O)N1; Thz = O=C(O)[C@@H]1CSCN1

What was measured:
Cannabinoid receptor 1 = Cannabinoid receptor 1 (Homo sapiens, UniProt P21554); assay type: functional, cell-based
[1] = target: T1, 5-hydroxytryptamine receptor 2A (Homo sapiens, UniProt P28223); assay type: functional, cell-based
T1 sequence (P28223 whole entry): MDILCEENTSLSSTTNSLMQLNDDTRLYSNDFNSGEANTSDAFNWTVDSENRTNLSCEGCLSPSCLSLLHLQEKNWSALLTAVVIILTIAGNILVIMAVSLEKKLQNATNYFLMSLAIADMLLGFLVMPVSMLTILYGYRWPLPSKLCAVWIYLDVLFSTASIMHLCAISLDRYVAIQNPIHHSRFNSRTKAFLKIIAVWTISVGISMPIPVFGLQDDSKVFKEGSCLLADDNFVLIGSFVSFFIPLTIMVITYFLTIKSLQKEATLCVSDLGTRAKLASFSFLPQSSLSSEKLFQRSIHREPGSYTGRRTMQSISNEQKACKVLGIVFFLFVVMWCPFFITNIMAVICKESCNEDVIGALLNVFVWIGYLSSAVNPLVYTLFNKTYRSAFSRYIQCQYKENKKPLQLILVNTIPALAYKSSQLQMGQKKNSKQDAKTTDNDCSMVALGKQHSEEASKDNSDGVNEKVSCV

[2] = target: T1, 5-hydroxytryptamine receptor 2A; assay type: functional, cell-based; remark: listed apart in the source
Histamine H1 receptor = Histamine H1 receptor (Homo sapiens, UniProt P35367)
Histamine H1 receptor, sequence (P35367 whole entry): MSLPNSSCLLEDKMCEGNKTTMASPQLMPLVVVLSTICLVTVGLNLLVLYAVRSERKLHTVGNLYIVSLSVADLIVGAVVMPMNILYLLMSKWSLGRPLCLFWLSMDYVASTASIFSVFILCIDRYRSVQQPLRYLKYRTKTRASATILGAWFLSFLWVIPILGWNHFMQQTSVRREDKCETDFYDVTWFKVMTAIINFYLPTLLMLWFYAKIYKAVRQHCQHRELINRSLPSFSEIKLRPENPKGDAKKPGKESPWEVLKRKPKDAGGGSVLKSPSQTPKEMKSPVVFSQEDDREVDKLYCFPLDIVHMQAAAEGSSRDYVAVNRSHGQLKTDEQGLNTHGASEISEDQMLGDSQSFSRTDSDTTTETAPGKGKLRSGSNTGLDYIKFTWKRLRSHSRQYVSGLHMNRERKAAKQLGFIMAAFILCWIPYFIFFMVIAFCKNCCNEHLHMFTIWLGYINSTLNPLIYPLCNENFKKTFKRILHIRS

Estrogen receptor = target: T2, Estrogen receptor (Homo sapiens, UniProt P03372)
T2 sequence (P03372 whole entry): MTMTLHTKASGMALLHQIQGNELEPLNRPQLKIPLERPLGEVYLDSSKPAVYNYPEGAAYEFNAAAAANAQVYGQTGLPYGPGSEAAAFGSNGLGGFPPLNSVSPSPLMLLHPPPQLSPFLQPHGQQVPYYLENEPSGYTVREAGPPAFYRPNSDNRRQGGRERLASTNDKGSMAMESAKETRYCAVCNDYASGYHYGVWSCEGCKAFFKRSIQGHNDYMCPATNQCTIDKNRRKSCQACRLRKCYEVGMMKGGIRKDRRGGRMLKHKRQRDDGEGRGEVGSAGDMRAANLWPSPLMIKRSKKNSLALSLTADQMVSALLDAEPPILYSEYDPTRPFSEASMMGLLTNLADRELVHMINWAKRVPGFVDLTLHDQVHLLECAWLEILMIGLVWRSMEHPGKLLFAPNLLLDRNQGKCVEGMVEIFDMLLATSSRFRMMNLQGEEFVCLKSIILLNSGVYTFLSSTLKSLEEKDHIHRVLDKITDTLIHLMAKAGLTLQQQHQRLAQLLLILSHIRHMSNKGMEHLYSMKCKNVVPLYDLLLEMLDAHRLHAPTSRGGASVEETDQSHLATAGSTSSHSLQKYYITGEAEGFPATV

[3] = target: T3, Alpha-1A adrenergic receptor (Homo sapiens, UniProt P35348)
T3 sequence (P35348 whole entry): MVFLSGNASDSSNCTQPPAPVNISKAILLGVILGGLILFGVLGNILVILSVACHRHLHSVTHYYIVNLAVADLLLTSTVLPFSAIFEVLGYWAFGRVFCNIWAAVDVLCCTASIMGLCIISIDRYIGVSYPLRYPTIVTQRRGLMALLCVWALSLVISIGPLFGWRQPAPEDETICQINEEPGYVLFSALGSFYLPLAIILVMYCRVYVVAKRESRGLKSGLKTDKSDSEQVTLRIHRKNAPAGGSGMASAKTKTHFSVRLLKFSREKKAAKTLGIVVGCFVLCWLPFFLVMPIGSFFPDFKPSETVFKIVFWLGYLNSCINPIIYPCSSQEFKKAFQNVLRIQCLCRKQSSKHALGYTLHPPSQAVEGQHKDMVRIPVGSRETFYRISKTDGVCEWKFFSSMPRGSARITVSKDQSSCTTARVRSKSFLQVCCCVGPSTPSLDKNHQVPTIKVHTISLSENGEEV

[4] = target: T4, 5-hydroxytryptamine receptor 1A (Homo sapiens, UniProt P08908); assay type: functional, cell-based
T4 sequence (P08908 whole entry): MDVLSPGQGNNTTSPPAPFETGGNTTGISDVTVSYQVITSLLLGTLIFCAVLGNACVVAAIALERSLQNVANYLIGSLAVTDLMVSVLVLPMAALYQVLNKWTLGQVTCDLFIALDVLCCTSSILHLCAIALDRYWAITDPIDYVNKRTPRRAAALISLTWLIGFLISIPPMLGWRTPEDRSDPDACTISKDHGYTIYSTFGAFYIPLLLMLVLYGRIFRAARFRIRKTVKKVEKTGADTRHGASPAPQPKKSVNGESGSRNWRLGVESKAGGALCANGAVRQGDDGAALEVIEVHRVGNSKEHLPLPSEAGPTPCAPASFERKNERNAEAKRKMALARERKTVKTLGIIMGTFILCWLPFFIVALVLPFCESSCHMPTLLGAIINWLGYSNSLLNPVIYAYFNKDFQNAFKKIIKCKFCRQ

Endothelin-1 receptor = target: T5, Endothelin-1 receptor (Homo sapiens, UniProt P25101)
T5 sequence (P25101 whole entry): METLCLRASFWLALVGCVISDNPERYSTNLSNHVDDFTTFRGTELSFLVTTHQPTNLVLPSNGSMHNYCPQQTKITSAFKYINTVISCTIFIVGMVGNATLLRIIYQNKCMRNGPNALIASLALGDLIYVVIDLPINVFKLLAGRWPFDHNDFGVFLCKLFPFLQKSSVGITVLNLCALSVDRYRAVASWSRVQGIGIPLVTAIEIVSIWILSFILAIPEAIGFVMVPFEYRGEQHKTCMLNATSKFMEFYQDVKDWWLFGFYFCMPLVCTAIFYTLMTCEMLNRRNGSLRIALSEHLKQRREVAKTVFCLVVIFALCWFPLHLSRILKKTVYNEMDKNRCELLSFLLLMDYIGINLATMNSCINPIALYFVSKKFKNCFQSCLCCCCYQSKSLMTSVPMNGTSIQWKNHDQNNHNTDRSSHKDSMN

Mu-type opioid receptor = Mu-type opioid receptor (Homo sapiens, UniProt P35372); experiment: biochemical; assay type: functional
Mu-type opioid receptor, sequence (P35372 whole entry): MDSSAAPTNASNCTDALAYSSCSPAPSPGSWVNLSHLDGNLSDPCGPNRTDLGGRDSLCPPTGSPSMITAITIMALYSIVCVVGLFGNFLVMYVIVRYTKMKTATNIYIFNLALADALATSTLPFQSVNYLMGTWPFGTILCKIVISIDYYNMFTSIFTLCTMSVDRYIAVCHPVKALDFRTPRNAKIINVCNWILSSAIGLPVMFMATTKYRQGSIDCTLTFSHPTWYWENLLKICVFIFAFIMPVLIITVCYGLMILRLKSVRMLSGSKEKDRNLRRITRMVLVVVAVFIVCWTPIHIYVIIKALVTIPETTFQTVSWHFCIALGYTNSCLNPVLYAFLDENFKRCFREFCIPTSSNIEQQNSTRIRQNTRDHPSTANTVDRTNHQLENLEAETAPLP
Further: assay procedure not described here.

Cannabinoid receptor 1, sequence (P21554 whole entry): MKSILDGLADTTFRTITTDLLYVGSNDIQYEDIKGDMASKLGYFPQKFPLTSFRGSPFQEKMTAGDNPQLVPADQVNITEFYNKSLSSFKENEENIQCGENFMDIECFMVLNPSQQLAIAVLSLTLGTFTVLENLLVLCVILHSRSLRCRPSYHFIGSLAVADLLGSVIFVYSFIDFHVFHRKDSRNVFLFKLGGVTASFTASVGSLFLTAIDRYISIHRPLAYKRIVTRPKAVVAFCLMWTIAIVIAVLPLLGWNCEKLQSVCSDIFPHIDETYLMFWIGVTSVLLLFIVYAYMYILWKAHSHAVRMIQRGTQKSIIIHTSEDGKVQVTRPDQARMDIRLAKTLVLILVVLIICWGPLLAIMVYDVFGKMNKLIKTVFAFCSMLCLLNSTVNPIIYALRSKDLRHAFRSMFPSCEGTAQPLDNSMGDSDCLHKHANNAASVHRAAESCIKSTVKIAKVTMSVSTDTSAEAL

SMILES	AC50 (Cannabinoid receptor 1)	AC50 [1]	AC50 [2]	AC50 (Histamine H1 receptor)	AC50 (Estrogen receptor)	AC50 [3]	AC50 [4]	AC50 (Endothelin-1 receptor)	AC50 (Mu-type opioid receptor)
COc1cc(C)c(/C=C/C(C)=C/C=C/C(C)=C/C(=O)O)c(C)c1C [ACITRETIN]	> 30 µM	> 10 µM	> 10 µM	> 10 µM	> 30 µM	> 10 µM			
O=C(O)c1ccc(NC(=O)[C@H](Cc2ccc(O)cc2)NC(=O)c2ccccc2)cc1 [BENTIROMIDE]		> 10 µM	> 10 µM	> 10 µM	> 10 µM	> 10 µM	> 10 µM		
Clc1ccc(CCC(Cn2ccnc2)Sc2c(Cl)cccc2Cl)cc1 (stereo not given) [BUTOCONAZOLE]		> 30 µM	> 30 µM	> 30 µM	20 µM			> 30 µM	> 30 µM
Oc1ccc(CCNCCCCCCNCCc2ccccc2)cc1O [DOPEXAMINE]	> 30 µM	> 30 µM	> 30 µM	15 µM	> 30 µM		> 30 µM	> 30 µM	> 30 µM
CCc1cc2c(s1)-n1c(C)nnc1CN=C2c1ccccc1Cl [ETIZOLAM]	> 30 µM	> 30 µM	> 30 µM	> 30 µM	> 30 µM			> 30 µM	> 30 µM
CC/C=C\C/C=C\C/C=C\C/C=C\C/C=C\CCCC(=O)OCC [ICOSAPENT ETHYL]	> 30 µM	> 30 µM	> 30 µM	> 30 µM	> 10 µM		> 30 µM	> 30 µM	> 30 µM
CC(=O)[C@H]1CC[C@H]2[C@@H]3C[C@H](C)C4=CC(=O)CC[C@]4(C)[C@H]3[C@@H](O)C[C@]12C [MEDRYSONE]	> 30 µM	> 10 µM	> 10 µM	> 10 µM		> 10 µM	> 10 µM		
CCCC(C)(COC(N)=O)COC(N)=O [MEPROBAMATE]		> 10 µM	> 10 µM	> 10 µM		> 30 µM	> 10 µM		> 30 µM
O=C(c1cc(Cc2n[nH]c(=O)c3ccccc23)ccc1F)N1CCN(C(=O)C2CC2)CC1 [OLAPARIB]		> 10 µM	> 10 µM	> 10 µM	> 30 µM	> 10 µM			
OC[C@H]1O[C@@H](Oc2cc(O)cc(/C=C/c3ccc(O)cc3)c2)[C@H](O)[C@@H](O)[C@@H]1O [PICEID]	> 30 µM	> 30 µM	> 30 µM	> 30 µM	> 30 µM			> 30 µM	> 30 µM
O=C1CC[C@@H](C(=O)N2CSC[C@H]2C(=O)O)N1 [PIDOTIMOD] ([pGlu]-[Thz]-OH)	> 30 µM	> 30 µM	> 30 µM	> 30 µM	> 30 µM			> 30 µM	> 30 µM
CCC(NC(C)C)C(O)c1ccc(O)c2[nH]c(=O)ccc12 (stereo not given) [PROCATEROL]	> 30 µM	> 30 µM	> 30 µM	> 30 µM	> 30 µM			> 30 µM	> 30 µM
C=CC[N+]1([C@H]2C[C@H]3[C@@H]4CC[C@H]5C[C@H](O)[C@@H](N6CCOCC6)C[C@]5(C)[C@H]4CC[C@]3(C)[C@H]2OC(C)=O)CCCC1 [ROCURONIUM]		> 30 µM	> 30 µM	> 30 µM	> 30 µM		> 30 µM		> 30 µM
Cn1c(=O)c2c(ncn2CCOC(=O)C(C)(C)Oc2ccc(Cl)cc2)n(C)c1=O [THEOFIBRATE]	> 30 µM	> 30 µM	> 30 µM	> 30 µM	> 30 µM		> 30 µM	> 30 µM	> 30 µM
CC(C(=O)O)c1ccc2c(c1)CC(=O)c1ccccc1S2 (stereo not given) [ZALTOPROFEN]	> 30 µM	> 30 µM	> 30 µM	> 30 µM	> 30 µM			> 30 µM	> 30 µM
